Reference: ChEMBL document CHEMBL5247589, “Natural occurrence, bioactivity, and biosynthesis of triene-ansamycins” (Eur J Med Chem, 2022)
Converted amounts (≈) assume the structure as drawn. Blank lines part the entries; values can stand above or below the compound they belong to.

Tests used:
NCI-H1299 = experiment: Antiproliferative activity against human H1299 cells incubated for 72 hrs by absorbance based assay; type: functional, cell-based; details: NCI-H1299, 72 h
HeLa [1] = experiment: Antiproliferative activity against human HeLa cells incubated for 72 hrs by absorbance based assay; type: functional, cell-based
HepG2 = experiment: Antitumor activity against human HepG2 incubated for 48 hrs by MTT assay; type: functional, cell-based; details: HepG2, 48 h
MCF7 [2] = experiment: Antitumor activity against human MCF-7 incubated for 48 hrs by MTT assay; type: functional, cell-based; details: MCF7, 48 h
HeLa [3] = experiment: Antitumor activity against human HeLa cells assessed as cell growth inhibition incubated for 3 days; type: functional, cell-based; details: 72 h
C-33-A = experiment: Antitumor activity against human C33A cells assessed as cell growth inhibition incubated for 3 days; type: functional, cell-based; details: 72 h
COLO 201 = experiment: Antitumor activity against human COL0201 cells assessed as cell growth inhibition incubated for 3 days; type: functional, cell-based; details: COLO 201, 72 h
MCF7 [4] = experiment: Antitumor activity against human MCF7 cells assessed as cell growth inhibition incubated for 3 days; type: functional, cell-based; details: MCF7, 72 h
PANC-1 [5] = experiment: Antitumor activity against human PANC-1; type: functional, cell-based; details: pooled result: one value given for 3 cell lines, strains, targets or settings
HeLa [6] = experiment: Antitumor activity against human HeLa cells assessed as cell growth inhibition incubated for 72 hrs by MTT assay; type: functional, cell-based
HeLa [7] = experiment: Antitumor activity against human HeLa cells; type: functional, cell-based
PANC-1 [8] = experiment: Antitumor activity against human PANC-1 cells assessed as cell growth inhibition incubated for 48 hrs by CCK-8 assay; type: functional, cell-based; details: PANC-1, 48 h
SW1990 = experiment: Antitumor activity against human SW1990 cells assessed as cell growth inhibition incubated for 48 hrs by CCK-8 assay; type: functional, cell-based; details: SW1990, 48 h
PANC-1 [9] = experiment: Antitumor activity against human PANC-1 cells incubated for 48 to 72 hrs by MTS Assay; type: functional, cell-based
Capan-2 = experiment: Antitumor activity against human Capan-2 cells incubated for 48 to 72 hrs by MTS Assay; type: functional, cell-based
BXPC-3 = experiment: Antitumor activity against human BXPC-3 cells incubated for 48 to 72 hrs by MTS Assay; type: functional, cell-based
L5178Y = experiment: Cytotoxicity against mouse L5178Y; type: toxicity, cell-based

- IC50 (NCI-H1299): > 10000 nM
- IC50 (HeLa [1]): 10000 nM
SMILES: C/C1=C/CCc2c(O)c(cc3c2SCC(=O)N3)NC(=O)C[C@@H](O)/C=C/C=C/C=C/C[C@H](O)[C@H](C)[C@H]1O

- IC50 (HepG2): ≥ 6810 nM
- IC50 (MCF7 [2]): ≥ 6810 nM
SMILES: CO[C@H]1/C=C/C=C/C=C/C[C@H](OC(=O)[C@@H](C)NC(=O)C2CCCC2)[C@H](C)[C@@H](O)/C(C)=C\CCc2cc(O)cc(c2)NC(=O)C1

- IC50 (HeLa [3]): 150 nM
- IC50 (COLO 201): 150 nM
- IC50 (MCF7 [4]): 150 nM
SMILES: CO[C@H]1/C=C/C=C/C=C/C[C@H](OC(=O)[C@@H](C)NC(=O)CC(C)C)[C@H](C)[C@@H](O)/C(C)=C\CCc2c(O)c(cc3c2SCC(=O)N3)NC(=O)C1
- IC50 (C-33-A): 150 nM

- IC50 (HeLa [3]): 0.85 nM
- IC50 (COLO 201): 0.85 nM
- IC50 (MCF7 [4]): 0.85 nM
SMILES: CO[C@H]1/C=C/C=C/C=C/C[C@H](OC(=O)[C@@H](C)NC(=O)C2CCCCC2)[C@H](C)[C@@H](O)/C(C)=C\CCc2cc3c(c(c2O)NC(=O)C1)SCC(=O)N3
- IC50 (C-33-A): 0.85 nM

- IC50 (PANC-1 [5]): 170 nM
SMILES: CO[C@H]1/C=C/C=C/C=C/C[C@H](OC(=O)[C@@H](C)NC(=O)CC(C)C)[C@H](C)[C@@H](O)/C(C)=C\CCc2cc(O)cc(c2)NC(=O)C1

- IC50 (HeLa [6]): 55 nM
SMILES: CO[C@H]1/C=C/C=C/C=C/C[C@H](OC(=O)[C@@H](C)NC(=O)C2CCCCC2)[C@H](C)[C@@H](O)/C(C)=C\CCC2=C(SC)C(=O)C=C(NC(=O)C1)C2=O

- IC50 (HeLa [7]): 15 nM
SMILES: CO[C@H]1/C=C/C=C/C=C/C[C@H](OC(=O)[C@@H](C)NC(=O)C2CCCCC2)[C@H](C)[C@@H](O)/C(C)=C\CCc2cc(O)c(SC)c(c2O)NC(=O)C1

- IC50 (NCI-H1299): > 10000 nM
- IC50 (HeLa [1]): 10000 nM
SMILES: CO[C@H]1/C=C/C=C/C=C/C[C@@H]2O[C@@](C)([C@H](O)[C@H]2C)[C@H]2CCC3=C(S2)C(=O)C=C(NC(=O)C1)C3=O

- IC50 (HeLa [3]): 28 nM
- IC50 (COLO 201): 28 nM
- IC50 (MCF7 [4]): 28 nM
SMILES: CO[C@H]1/C=C/C=C/C=C/C[C@H](OC(=O)[C@@H](C)NC(=O)C2=CCCCC2)[C@H](C)[C@@H](O)/C(C)=C\CCc2c(O)c(cc3c2SCC(=O)N3)NC(=O)C1
- IC50 (C-33-A): 28 nM

- IC50 (HepG2): 7330 nM
- IC50 (MCF7 [2]): 7330 nM
SMILES: CO[C@H]1/C=C/C=C/C=C/C[C@H](OC(=O)[C@@H](C)NC(=O)C2CCC2)[C@H](C)[C@@H](O)/C(C)=C\CCc2cc(O)cc(c2)NC(=O)C1

- IC50 (PANC-1 [8]): 3990 nM
- IC50 (SW1990): 3990 nM
SMILES: CO[C@@H]1CC(=O)Nc2c(O)c3cc4c2[C@H](/C=C/C=C/C[C@H](OC(=O)[C@@H](C)NC(=O)C2CCCCC2)[C@H](C)[C@@H](O)/C(C)=C\CC3)[C@H]1O4

- IC50 (PANC-1 [9]): ≥ 10000 nM
- IC50 (BXPC-3): ≥ 10000 nM
SMILES: C/C=C(\C)C(=O)N[C@H](C)C(=O)O[C@H]1C/C=C/C=C/C=C/[C@H](OC)CC(=O)Nc2cc(O)cc(c2)CC/C=C(/C)[C@H](O)[C@H]1C
- IC50 (Capan-2): ≥ 10000 nM

- IC50 (PANC-1 [8]): 7790 nM
- IC50 (SW1990): 7790 nM
SMILES: CO[C@@H]1CC(=O)Nc2c(O)c3cc4c2[C@H](/C=C/C=C/C[C@H](O)[C@H](C)[C@@H](OC(=O)[C@@H](C)NC(=O)C2CCCCC2)/C(C)=C\CC3)[C@H]1O4

- IC50 (PANC-1 [8]): > 10000 nM
- IC50 (SW1990): > 10000 nM
SMILES: CO[C@@H]1CC(=O)Nc2c(O)c3cc4c2[C@H](/C=C/C=C/C[C@H](OC(=O)[C@@H](C)NC(=O)CCC(C)C)[C@H](C)[C@@H](O)/C(C)=C\CC3)[C@H]1O4

- IC50 (HeLa [3]): 3.1 nM
- IC50 (COLO 201): 3.1 nM
- IC50 (MCF7 [4]): 3.1 nM
SMILES: CO[C@H]1/C=C/C=C/C=C/C[C@H](OC(=O)[C@@H](C)NC(=O)C2=CCCCC2)[C@H](C)[C@@H](O)/C(C)=C\CCc2cc3c(c(c2O)NC(=O)C1)SCC(=O)N3
- IC50 (C-33-A): 3.1 nM

- IC50 (HeLa [3]): 18 nM
- IC50 (COLO 201): 18 nM
- IC50 (MCF7 [4]): 18 nM
SMILES: CO[C@H]1/C=C/C=C/C=C/C[C@H](OC(=O)[C@@H](C)NC(=O)C2CCCCC2)[C@H](C)[C@@H](O)/C(C)=C\CCc2c(O)c(cc3c2SCC(=O)N3)NC(=O)C1
- IC50 (C-33-A): 18 nM

- IC50 (NCI-H1299): > 10000 nM
- IC50 (HeLa [1]): 10000 nM
SMILES: CO[C@@H]1CC(=O)N2c3cc(O)cc4c3O[C@@H](/C=C/C=C/C[C@H](O)[C@H](C)[C@@H](O)/C(C)=C\CC4)[C@@H]12

- IC50 (PANC-1 [5]): 170 nM
SMILES: CO[C@H]1/C=C/C=C/C=C/C[C@H](OC(=O)[C@@H](C)NC(=O)CCC(C)C)[C@H](C)[C@@H](O)/C(C)=C\CCc2cc(O)cc(c2)NC(=O)C1

- IC50 (PANC-1 [8]): > 10000 nM
- IC50 (SW1990): > 10000 nM
SMILES: CO[C@@H]1CC(=O)Nc2c(O)c3cc4c2[C@H](/C=C/C=C/C[C@H](OC(=O)[C@@H](C)NC(=O)CC(C)C)[C@H](C)[C@@H](O)/C(C)=C\CC3)[C@H]1O4

- IC50 (PANC-1 [8]): 4730 nM
- IC50 (SW1990): 4730 nM
SMILES: CO[C@@H]1CC(=O)Nc2c(O)c3cc4c2[C@@H](/C=C/C=C/C[C@H](OC(=O)[C@@H](C)NC(=O)C2CCCCC2)[C@H](C)[C@@H](O)/C(C)=C\CC3)[C@H]1O4

- IC50 (PANC-1 [8]): 8290 nM
- IC50 (SW1990): 8290 nM
SMILES: CO[C@@H]1CC(=O)N2c3cc(O)cc4c3O[C@@H](/C=C/C=C/C[C@H](OC(=O)[C@@H](C)NC(=O)C3CCCCC3)[C@H](C)[C@@H](O)/C(C)=C\CC4)[C@H]12

SMILES: CO[C@H]1/C=C/C=C/C=C/C[C@H](O)[C@H](C)[C@@H](O)/C(C)=C\CCc2cc(O)cc(c2O)NC(=O)C1
- MIC (L5178Y): 7 µM (≈ 3.2 µg/mL)
